Experimental findings from BindingDB's records for doi:10.1021/acsmedchemlett.3c00236 (Smith, Gambrell & Russell, 2023) are described below.

The nature of this assay: Inhibition of NLRP3 in human THP-1 cells assessed as reduction in pyroptosis preincubated for 3 hrs followed by nigericin addition and measured after 1 hr by resazurin dye based microplate reader analysis. (In general: The colour change of resazurin is a common sign of viable cells or microbes.)

As usually defined, the IC50 is the midpoint of a concentration-inhibition curve.

As for `CCN1CCC[C@H](Nc2nc3nc(-c4c(C)cc(Cl)c(F)c4O)ccc3o2)C1`, the IC50 is 0.6 nM.
